Results reported in patent publication US9821067B2, “Lipopeptides for delivery of nucleic acids” (Marina Biotech, Inc., priority 2007, dated 2017).
Primed or numbered codes have the meaning given here. No end group written: not given here. C20 = lipophilic group with a 20-carbon chain; PEG27′ = polyethylene glycol, 27 units; cysteamide = C-terminal cysteamide; C16 = N-terminal C16 lipid; C18 = N-terminal C18 lipid; C18″ = C18 lipid

Legend:
[1] = test system: Cyclophilin B (PPIB) gene expression in A549 cells; assay: In vitro assay for PPIB gene expression knockdown in A549 cells; type: cell-based, human; conditions: for % KD (vs QNeg) A549/PPIB: A549 cells, PPIB mRNA by RT-PCR 24 hours after transfection; for knockdown in the A549/PPIB assay: as compared to both Qneg and vehicle (data for vehicle not shown)
Experimental: Cyclophilin B (PPIB) gene expression knockdown was measured in A549 human alveolar basal epithelial cells. For PPIB gene knockdown measurements, A549 cells were transfected with an interfering RNA formulation, total RNA prepared 24 hours after transfection, and PPIB mRNA assayed by RT-PCR. QRT-PCR of 36B4 (acidic ribosomal phosphoprotein PO) mRNA expression was performed for normalization.
Confluency was about 50% at the time of transfection.
For PPIB gene knockdown cells were lysed and RNA prepared (Invisorb RNA Cell HTS 96-Kit/C, Invitek, Berlin, or RNeasy 96 Kit, Qiagen). Quantitative RT-PCR was performed using One-Step qRT-PCR kit (Invitrogen) on a DNA Engine Opticon2 thermal cycler (BioRad).

[2] = test system: LacZ gene (bacterial galactosidase) in 9L/LacZ cells; assay: In vitro assay for LacZ gene expression knockdown in 9L cells
Experimental: 9L/LacZ is a rat gliosarcoma cell line stably expressing the LacZ gene that encodes bacterial galactosidase. LacZ gene knockdown measurements can be used as a primary activity-based in vitro assay for interfering RNA delivery formulations.
For LacZ gene knockdown measurements, 9L/LacZ cells were transfected with an RNAi formulation, and a β-galactosidase assay was performed on cells harvested at day 3 post transfection. An additional assay was performed to quantify protein concentration.
9L/LacZ cells were plated at 8000 cells/well (96-well) and incubated overnight in medium. Confluency was about 15-20% at the time of transfection. Transfection complex was prepared by adding an interfering RNA to OptiMEM™ medium and vortexing, separately adding a delivery formulation to OptiMEM™ medium and vortexing, and finally mixing the interfering RNA in medium with the delivery formulation in medium to make the transfection complex. The medium for incubated cells was replaced with fresh no-serum media (OptiMEM™ without serum) and transfection complex was added to each well. Cells were incubated 5 hrs, then after the addition of 100 microliters complete medium (DMEM plus 10% fetal bovine serum) were incubated overnight at 37° C. and 5% CO2. The next day, 24 hours after transfection, the medium was changed to fresh complete medium and the cells were incubated another 48 hrs at 37° C. and 5% CO2.
For LacZ gene knockdown, the harvested 9L/LacZ cells were washed in PBS, lysed in M-PER™ Reagent (Pierce), and incubated at room temperature for 15 minutes. Lysate was taken from each well for protein assay with a Micro BCA kit (Pierce, Thermo Fisher Scientific) and β-gal assay with All-in-One™ β-Galactosidase Assay Reagent (Pierce).

[3] = N:P ratio 2, β-galactosidase assay day 3 post transfection
[4] = N:P ratio 4, β-galactosidase assay day 3 post transfection

| Substance | % KD (vs QNeg) A549/PPIB ([1]; N:P ratio 2) | % KD (vs QNeg) A549/PPIB ([1]; N:P ratio 4) | % KD (vs QNeg) L/9lacZ [2, 3] | % KD (vs QNeg) L/9lacZ [2, 4] | knockdown in the A549/PPIB assay [1] |
| --- | --- | --- | --- | --- | --- |
| (C16)-HHHHHKHHHKKKHKHKKK-Cysteamide (C16-HHHHHKHHHKKKHKHKKK-cysteamide) | 14.7% | −19.8% | 12.0% | 12.4% |  |
| (C18)-HHHHHKHHHKKKHKHKKK-cysteamide (C18-HHHHHKHHHKKKHKHKKK-cysteamide) | 25.5% | 21.6% | −11.3% | −19.4% | significant knockdown |
| (C18)-HHHHRRRRRRRR-Cysteamide (C18-HHHHRRRRRRRR-cysteamide) | 15.3% |  | −0.8% |  |  |
| (C18)-PEG27-HHHHHHHHRRRRRRRR-amide ({C18″-PEG27′}-HHHHHHHHRRRRRRRR-NH2) | 30.6% | 7.4% | 9.2% | −16.1% |  |
| (C20)-(H)8(R)8(H)8K-NH-(C20) (C20-HHHHHHHHRRRRRRRRHHHHHHHHK(C20)) | 29.7% | 65.8% | 60.1% | 57.5% | significant knockdown |
| Ac-GALFLAFLAAALSLMGLWSQPKKKRKV-Cysteamide (Ac-GALFLAFLAAALSLMGLWSQPKKKRKV-cysteamide) | 20.5% |  | 29.1% |  |  |
| Ac-GALFLAFLAAALSLMGLWSQPKSKRKV-Cysteamide (Ac-GALFLAFLAAALSLMGLWSQPKSKRKV-cysteamide) | 15.5% | 16.0% | 29.5% | −9.3% |  |
| Ac-GALFLGFLGAAGSTMGAWSQPKSKRKV-amide (Ac-GALFLGFLGAAGSTMGAWSQPKSKRKV-NH2) | −8.1% | −3.7% | −0.4% | −1.6% |  |
| Ac-LIRLWSHLIHIWFQNRRLKWKKK-amide (Ac-LIRLWSHLIHIWFQNRRLKWKKK-NH2) | 8.7% | −28.8% | −19.9% | −4.5% |  |
